{"source": "patent US5258398A", "about": "“Antithrombotic diaminoalkanoic acid derivatives” (Rhone-Poulenc Rorer Pharmaceuticals Inc., priority 1991, dated 1993)", "note": "pIC50: −log10 of the molar value.", "data": [{"test_system": "fixed activated platelets", "experiment": "Platelet Aggregation Assay (inhibition of fibrinogen-mediated aggregation of fixed-activated platelets)", "assay_type": "cell-based", "details": "human fibrinogen 250 μg/ml, fixed thrombin-activated human platelets", "excerpt": "(§1) The effectiveness of compounds of the present invention as inhibitors of thrombus formation and platelet aggregation may be determined by the following pharmacologic tests which evaluate the inhibition of fibrinogen-mediated platelet aggregation and fibrinogen binding to thrombin-stimulated platelets by said compounds.\n(§2) The Platelet Aggregation Assay is based on that described in Blood 66 (4), 946-952 (1985). The Fibrinogen-Binding Assay is essentially that of Ruggeri, Z. M., et al., Proc. Natl. Acad. Sci. USA 83, 5708-5712 (1986) and Plow, E. F., et al., Proc. Natl. Acad. Sci., USA 82, 8057-8061 (1985).\nPreparation of Fixed-Activated Platelets\nPlatelets are isolated from human platelet concentrates using the gel-filtration technique as described by Marguerie, G. A., et al., J. Biol. Chem. 254, 5357-5363 (1979) and Ruggeri, Z. M., et al., J. Clin. Invest. 72, 1-12 (1983). The platelets are suspended at a concentration of 2×10^8 cells/ml in a modified calcium-free Tyrode's buffer containing 127 mM sodium chloride, 2 mM magnesium chloride, 0.42 mM Na2 HPO4, 11.9 mM NaHCO3, 2.9 mM KCl, 5.5 mM glucose, 10 mM HEPES, at a pH of 7.35 and 0.35% human serum albumin (HSA). These washed platelets are activated by addition of human α-thrombin at a final concentration of 2 units/ml, followed by thrombin inhibitor I-2581 at a final concentration of 40 μM. To the activated platelets is added paraformaldehyde to a final concentration of 0.50% and this incubated at room temperature for 30 minutes. The fixed activated platelets are then collected by centrifugation at 650×g for 15 minutes. The platelet pellets are washed four times with the above Tyrode's-0.35% HSA buffer and resuspended to 2×10^8 cells/ml in the same buffer.\nPlatelet Aggregation Assay\nThe fixed activated platelets are incubated with a selected dose of the compound to be tested for platelet aggregation inhibition for one minute and aggregation initiated by addition of human fibrinogen to a final concentration of 250 μg/ml. A platelet aggregation profiler Model PAP-4 is used to record the platelet aggregation. The extent of inhibition of aggregation is expressed as the percentage of the rate of aggregation observed in the absence of inhibitor. IC50, i.e., the amount of inhibitor required to reduce the aggregation rate by 50%, is then calculated for each compound (see, for example, Plow, E. F., et al., Proc. Natl. Acad. Sci., USA 82, 8057-8061 (1985)).", "values": [{"smiles": "N=C(N)NCCCCCCCC(=O)NC(CC(=O)O)NC(=O)CCCCCCCNC(=N)N", "note": "(stereo not shown) [Example 1, N,N'-bis-(8-guanidino)octanoyl-3,3-diaminopropionic acid]", "pIC50": 6.92}, {"smiles": "N=C(N)NCCCCCCCCC(=O)N[C@H](CC(=O)O)NC(=O)CCCCCCCNC(=N)N", "note": "[Example 2, (3S)-N-(8-guanidino)octanoyl-N'-(9-guanidino)nonanoyl-3,3-diaminopropionic acid]", "pIC50": 5.89}, {"smiles": "N=C(N)NCCCCCCC(=O)NC(CC(=O)O)NC(=O)CCCCCCNC(=N)N", "note": "(stereo not shown) [Example 4, N,N'-bis-(7-guanidino)heptanoyl-3,3-diaminopropionic acid]", "pIC50": 5.55}, {"smiles": "N=C(N)NCCCCCCCCC(=O)NC(CC(=O)O)NC(=O)CCCCCCCCNC(=N)N", "note": "(stereo not shown) [Example 5, N,N'-bis-(9-guanidino)nonanoyl-3,3-diaminopropionic acid]", "pIC50": 6.85}, {"smiles": "N=C(N)NCCCCCCCCC(=O)N[C@H](CC(=O)O)NC(=O)CCCCCCNC(=N)N", "note": "[Example 6, (3S)-N-(7-guanidino)heptanoyl-N'-(9-guanidino)nonanoyl-3,3-diaminopropionicacid]", "pIC50": 5.55}, {"smiles": "N=C(N)NCCCCCCCC(=O)N[C@H](CC(=O)O)NC(=O)CCCCCCNC(=N)N", "note": "[Example 7, (3S)-N-(7-guanidino)heptanoyl-N'-(8-guanidino)octanoyl-3,3-diaminopropionicacid]", "pIC50": 6.13}, {"smiles": "N=C(N)NCCCCCCCCC(=O)N[C@@H](CC(=O)O)NC(=O)CCCCCCCNC(=N)N", "note": "[Example 8, (3R)-N-(8-guanidino)octanoyl-N'-(9-guanidino)nonanoyl-3,3-diaminopropionic acid]", "pIC50": 6.52}, {"smiles": "N=C(N)NCCCCCCCC(=O)N[C@H](CC(=O)O)NC(=O)[C@@H](N)CCCNC(=N)N", "note": "[Example 9, (3S)-N-L-arginyl-N'-(8-guanidino)octanoyl-3,3-diaminopropionic acid]", "pIC50": 5.01}, {"smiles": "N=C(N)NCCCCCCCCC(=O)N[C@@H](CC(=O)O)NC(=O)CCCCCCNC(=N)N", "note": "[Example 10, (3R)-N-(7-guanidino)heptanoyl-N'-(9-guanidino)nonanoyl-3,3-diaminopropionicacid]", "pIC50": 6.92}, {"smiles": "N=C(N)NCCCCCCCC(=O)N[C@@H](CC(=O)O)NC(=O)CCCCCCNC(=N)N", "note": "[Example 11, (3R)-N-(7-guanidino)heptanoyl-N'-(8-guanidino)octanoyl-3,3-diaminopropionicacid]", "pIC50": 6.49}, {"smiles": "CC(C)CC(=O)N[C@H](CC(=O)O)NC(=O)CCCCCCCNC(=N)N", "note": "[Example 12, (3R)-N-(8-guanidino)octanoyl-N'-(3-methyl)butanoyl-3,3-diaminopropionic acid]", "pIC50": 5.70}, {"smiles": "CC[C@@H](C)[C@@H](NC(=O)CCCCNC(=N)N)C(=O)N[C@H](CC(=O)O)NC(=O)CCCCCCCCNC(=N)N", "note": "[Example 15, (3R)-N-[N-[(5-guanidino)pentanoyl]-D-isoleucyl]-N'-(9-guanidino)nonanoyl-3,3-diaminopropionic acid]", "pIC50": 4.60}, {"smiles": "CC[C@H](C)[C@H](NC(=O)CCCCNC(=N)N)C(=O)N[C@H](CC(=O)O)NC(=O)CCCCCCCCNC(=N)N", "note": "[Example 17]", "pIC50": 4.76}, {"smiles": "N=C(N)NCCCCCCCC(=O)NC(CCC(=O)O)NC(=O)CCCCCCCNC(=N)N", "note": "(stereo not shown) [Example 18, N,N'-bis-(8-guanidino)octanoyl-4,4-diaminobutanoic acid]", "pIC50": "< 4.00"}]}, {"test_system": "thrombin-stimulated platelets", "experiment": "Fibrinogen-Binding Assay (inhibition of 125I-fibrinogen binding to platelets)", "details": "125I-labeled fibrinogen 0.176 μmol/liter (60 μg/ml); 22°-25° C., 30 minutes; read-out: Inhibition of 125I-Fibrinogen Binding to Platelet (IC50)", "excerpt": "as §1, §2\nPlatelets are washed free of plasma constituents by the albumin density-gradient technique of Walsh, P. N., et al., Br. J. Haematol. 281-296 (1977), as modified by Trapani-Lombardo, V., et al., J. Clin Invest. 76, 1950-1958 (1985). […] The platelet pellet is then separated from the rest of the mixture to determine platelet-bound radioactivity. Nonspecific binding is measured in mixtures containing an excess of unlabeled ligand. When binding curves are analyzed by Scatchard analysis, nonspecific binding is derived as a fitted parameter from the binding isotherm by means of a computerized program (Munson, P. J., Methods Enzymol. 92, 542-576 (1983)). […]", "values": [{"smiles": "N=C(N)NCCCCCCCC(=O)NC(CC(=O)O)NC(=O)CCCCCCCNC(=N)N", "note": "(stereo not shown) [Example 1, N,N'-bis-(8-guanidino)octanoyl-3,3-diaminopropionic acid]", "pIC50": 7.15}, {"smiles": "N=C(N)NCCCCCCCC(=O)N[C@H](CC(=O)O)NC(=O)[C@@H](N)CCCNC(=N)N", "note": "[Example 9, (3S)-N-L-arginyl-N'-(8-guanidino)octanoyl-3,3-diaminopropionic acid]", "pIC50": 5.92}]}]}
